Patent publication US12227577B2, “Combination of a PD-1 antagonist, an ATR inhibitor and a platinating agent for the treatment of cancer” (Merck Patent GMBH, priority 2018, dated 2025)
Several values for one entry are separate records, joined by “and”; a condition that tells them apart may be missing. Equal entries are not always repeated.

Legend:
[1] = system: MC38 colorectal cancer syngeneic model; assay: Experiment 2A: triple combination of Avelumab, Cisplatin and ATRi 1 in subcutaneous MC38 model; format: in vivo, C57BL/6 mice; conditions: Exp. 2A; for Tumor-free mice on day 66: 10 mice per group; for Median survival: Kaplan-Meier, survival data up to day 66, euthanized at tumor burden of 3,000 mm^3; for TGI % (%) / T/C (%) / anti-tumor activity: day 17; for T/C (%): treated vs control group mean volume; for anti-tumor activity: in words
Source text: The objective of this study was to evaluate the in vivo anti-tumor efficacy of a triple combination treatment comprising avelumab, a platinating agent (cisplatin or carboplatin) and ATRi 1 (Compound 1) in the subcutaneous MC38 colorectal cancer syngeneic model in C57BL/6 mice.
The tumor cells were routinely subcultured twice weekly by trypsin-EDTA treatment.
Treatments were started on day 7 after tumor inoculation when the average tumor size reached approximately 80 mm^3. […] Each group consisted of 10 tumor-bearing mice.
(§1) The major endpoint was to see if the tumor growth could be delayed or mice could be cured. Tumor size was measured twice weekly in two dimensions using a caliper, and the volume was expressed in mm^3 using the formula: V=0.5 a×b^2 where a and b are the long and short diameters of the tumor, respectively. The tumor size was then used for calculation of T/C values. The T/C value (in percent) is an indication of antitumor effectiveness; T and C are the mean volumes of the treated and control groups, respectively, on a given day. TGI was calculated for each group using the formula: TGI (%)=[1−(Ti−T0)/(Vi−V0)]×100; Ti is the average tumor volume of a treatment group on a given day, TO is the average tumor volume of the treatment group on the day of treatment start, Vi is the average tumor volume of the vehicle control group on the same day with Ti, and V0 is the average tumor volume of the vehicle group on the day of treatment start. Animals were euthanized as they reached tumor burden of 3,000 mm^3 per IACUC regulations and the time to reach this endpoint was used for Kaplan-Meier survival analysis.
Statistical analysis of difference in the tumor volume among the groups were conducted on the data obtained at the best therapeutic time point on day 17 after the start of treatment). A one-way ANOVA was performed, and when a significant F-statistics (a ratio of treatment variance to the error variance) was obtained, comparisons between groups were carried out with Games-Howell test. All data were analyzed using SPSS 17.0. p<0.05 was considered to be statistically significant.
(§2) Statistical analysis of difference in survival rate among the groups were conducted on the survival data up to day 66 after the start of treatment. Kaplan-Meier test was performed, all data were analyzed using GraphPad Prism 6.0., comparisons between groups were carried out with Log-rank test, p<0.05 was considered to be statistically significant.
The anti-tumor efficacy of the triple combination avelumab, cisplatin and ATRi 1 was tested according to the above methods and with the experimental design outlined in Table 2.

[2] = system: MC38 colorectal cancer syngeneic model; assay: Experiment 2B: triple combination of Avelumab, Carboplatin and ATRi 1 in subcutaneous MC38 model; format: in vivo, C57BL/6 mice; conditions: Exp. 2B; for Tumor-free mice on day 66: 10 mice per group; for Median survival: Kaplan-Meier, survival data up to day 66, euthanized at tumor burden of 3,000 mm^3; for TGI % (%) / T/C (%) / anti-tumor activity: day 17; for T/C (%): treated vs control group mean volume; for anti-tumor activity: in words; for Tumor Size (mm^3) at day 17: day 17 after start of treatment, Mean ± SEM, Avelumab 400 μg i.v. days 3, 6, 9, Carboplatin 60 mg/kg i.p., ATRi 1 60 mg/kg p.o. days 0, 7
Protocol: The MC38 tumor cells were maintained in vitro as a monolayer culture in DMEM+2 mM glutamine supplemented with 10% heat inactivated fetal bovine serum, 100 U/ml penicillin and 100 μg/ml streptomycin at 37° C. in an atmosphere of 5% CO2 in air. The tumor cells were routinely subcultured twice weekly by trypsin-EDTA treatment. The cells growing in an exponential growth phase were harvested and counted for tumor inoculation.
Each mouse was inoculated subcutaneously at the right upper flank with MC38 cells (3×10^5) in 0.1 mL of PBS for tumor development. Treatments were started on day 7 after tumor inoculation when the average tumor size reached approximately 80 mm^3. The animals were assigned into groups using an Excel-based randomization software performing stratified randomization based upon their tumor volumes. Each group consisted of 10 tumor-bearing mice. The tested compounds were administered to the mice according to the predetermined regimen shown in the experimental design Table 2 and Table 6, respectively.
as §1
A one-way ANOVA was performed, and when a significant F-statistics (a ratio of treatment variance to the error variance) was obtained, comparisons between groups were carried out with Games-Howell test. All data were analyzed using SPSS 17.0. p<0.05 was considered to be statistically significant.
as §2
The anti-tumor efficacy of the triple combination avelumab, carboplatin and ATRi 1 was tested according to the above methods and with the experimental design outlined in Table 6.

[3] = system: MB49 syngeneic tumor model; assay: Triple combination treatment in murine subcutaneous MB49 tumor model; format: in vivo, C57BL/6 female mice; conditions: for Median survival: Kaplan-Meier, sacrificed when tumor volume reached 2000 mm^3; for Tumor Size (mm^3) at day 18: day 18, Mean ± SEM, Avelumab 400 μg i.v. days 3, 6, 9, Carboplatin 60 mg/kg i.p., ATRi 1 60 mg/kg p.o. days 0, 7; for TGI % (%): day 18 after start of treatment, vs control group; for tumor growth inhibition effect: in words, compared to the control group
Protocol: C57BL/6 female mice at 8-9 weeks of age where subcutaneously injected into the right flank with 0.5×10^6 of viable MB49 tumor cells in 0.1 mL PBS. The animals were randomized and therapy initiated when the tumors reached a volume of around 100 mm^3 (day 0 of treatment). Each group consisted of 10 tumor-bearing mice. The tested compounds were administered to the mice according to the predetermined regimen shown in the experimental design Table 14:
The tumor size was then used for calculation of T/C values.
The body weight was also measured twice a week. Mice were sacrificed when the tumor volume reached 2000 mm^3.
One-way analysis of variance (ANOVA) with Bonferroni's Multiple Comparisons Test, two-way ANOVA, unpaired t-test and Log-rank test from the GraphPad Prism software package were used (Prism 5 for Windows, Version 5.0, GraphPad Software Inc., San Diego, CA). p<0.05 was considered to be statistically significant.

[4] = 10 mg/kg dose; cited from earlier work

| Compound | Tumor-free mice on day 66 [1] | Median survival [1] [days] | TGI % (%) [1] [%] | T/C (%) [1] [%] | anti-tumor activity [1] | Tumor-free mice on day 66 [2] | Median survival [2] [days] | TGI % (%) [2] [%] | T/C (%) [2] [%] | anti-tumor activity [2] | Median survival [3] [days] | Tumor Size (mm^3) at day 18 [3] [mm^3] | TGI % (%) [3] [%] | tumor growth inhibition effect [3] | Tumor Size (mm^3) at day 17 [2] | receptor occupancy [4] | tolerability [4] |
| --- | --- | --- | --- | --- | --- | --- | --- | --- | --- | --- | --- | --- | --- | --- | --- | --- | --- |
| CNCc1ccc(-c2cc(-c3nc(-c4ccc(S(=O)(=O)C(C)C)cc4)cnc3N)on2)cc1 [ATRi 1, 3-[3-(4-Methylaminomethyl-phenyl)-isoxazol-5-yl]-5-[4-(propane-2-sulfonyl)-phenyl]-pyrazin-2-ylamine] | 0/10 | 24 | 11.6 | 88.9 | minor anti-tumor activity | 0/10 | 21 | −31.2 | 129.5 | minor anti-tumor activity | 21 | 2087 ± 333 | 7.8 | did not show any significant tumor growth inhibition effect | – | – | – |
| N.N.O=C([O-])C1(C(=O)[O-])CCC1.[Pt+2] [Carboplatin, reference compound] | – | – | – | – | – | 0/10 | 28 | 55.5 | 47.6 | minor anti-tumor activity | 21 | 1814 ± 212 | 19.9 | did not show any significant tumor growth inhibition effect | 671 mm^3 and 671 ± 160 mm^3 | – | – |
| N.N.[Cl][Pt][Cl] [Cisplatin, reference compound] | 0/10 | 28 | 38.7 | 63.1 | minor anti-tumor activity | – | – | – | – | – | – | – | – | – | – | – | – |
| Avelumab: fully human monoclonal antibody of the immunoglobulin (Ig) G1 isotype; selectively binds to PD-L1 | 0/10 | 26 | 41.8 | 60.2 | minor anti-tumor activity | 0/10 | 31 | 47.8 | 54.9 | minor anti-tumor activity | 22.5 | 1378 ± 175 | 39.1 | moderate tumor growth inhibition effect | 774 mm^3 and 774 ± 153 mm^3 | excellent | well tolerated |
